Tests used:
MGC-803 cells = assay: CCK-8 proliferation assay, MGC-803; format: cell-based, human; details: 48 h, CCK-8, mean ± SD
Experimental: (§1) All synthesized β-lactam-azide derivatives were evaluated for their antiproliferative activity against three cancer cell lines (MGC-803, MCF-7, A549) using CCK-8 proliferation assay. The well-known anticancer drug CA-4P was used as a control[36],[37].
(§2) MGC-803 cell line was obtained from the Chinese Academy of Sciences (Shanghai, China). MCF-7 and A549 were from the National Cell Center, China. MGC-803 cells were cultured in DMEM culture medium (DMEM, Biological Industries, Kibbutz Beit Haemek, Israel). A549 and MCF-7 cells were cultured in 1640 medium (1640, Biological Industries, Kibbutz Beit Haemek, Israel). All medium were supplemented with 10% fetal bovine serum, 100 U/ml penicillin (North China Pharmaceutical group Co.), and 100 µg/ml streptomycin (North China Pharmaceutical group Co.). All cells were cultured at 37 °C in a humidified incubator containing 5% CO2.
(§3) Synthesized analogues used in the study were dissolved in 100% cell culture grade DMSO and the final concentration of DMSO as <0.1% for testing on cancer cell lines. Cytotoxicity assays were performed on the human gastric carcinoma cell line MGC-803, the human mammary carcinoma cell line MCF-7, the human lung carcinoma cell line A549. Cells (3500–5000/well) were seeded into 96-well plates in 100 µL of culture medium. The cells were treated in triplicate with a gradient concentration of testing compounds and incubated at 37 °C, 5% CO2 for 48 h. For all cell lines, CCK-8 assay was performed to measure cytotoxic effects. The absorbance was measured using a microplate reader (BioTek Instrument, Inc. Vermont, USA) with a test wavelength of 450 nm. The absorbance levels were corrected against untreated control absorbance values. All experiments were performed in triplicate and SPSS17.0 was used for data analysis to obtain IC50 values.

MCF-7 cells = assay: CCK-8 proliferation assay, MCF-7; format: cell-based, human; details: 48 h, CCK-8, mean ± SD
Experimental: as §1, §2, §3

A549 cells = assay: CCK-8 proliferation assay, A549; format: cell-based, human; details: 48 h, CCK-8, mean ± SD
Experimental: as §1, §2, §3

[1] = system: three cancer cell lines (MGC-803, MCF-7, A549); assay: CCK-8 proliferation assay, three cancer cell lines together; format: cell-based; details: Homo sapiens, 48 h, read-out: IC50 values toward three cancer cell lines
Experimental: as §1, §2
Synthesized analogues used in the study were dissolved in 100% cell culture grade DMSO and the final concentration of DMSO as <0.1% for testing on cancer cell lines. […] The absorbance was measured using a microplate reader (BioTek Instrument, Inc. Vermont, USA) with a test wavelength of 450 nm. The absorbance levels were corrected against untreated control absorbance values. […]

MGC-803 xenograft = MGC-803 xenograft model in nude mice; format: in vivo, BALB/c nude mice; details: 100 mg/kg, intragastric daily
Experimental: To evaluate the potential antitumor effects of 28 in vivo, a MGC-803 xenograft model were established in nude mice by subcutaneously injecting MGC-803 cells at its logarithmic phase into the right flank of mice[56]. Tumor bearing mice were then randomly assigned to five groups (control, 100 mg/kg CA-4P, 25, 50, 100 mg/kg 28) with 10 mice per group. Then, the mice were gavaged with saline (control), CA-4P and different concentrations of 28 in saline solution daily. […] At the end of the observation period, mean tumor volumes of control, CA-4P, 25, 50, and 100 mg/kg 28 groups were 1665.98 ± 568.36 mm^3, 642.61 ± 449.92 mm^3, 788.18 ± 435.92 mm^3, 1125.93 ± 668.25 mm^3 and 1273.88 ± 513.69 mm^3, respectively. […] The antitumor activity of 28 in vivo was similar to that of CA-4P.
Animals were treated according to protocols established by the ethics committee of Zhengzhou University and the in vivo experiments were carried out in accordance with the approved guidelines and approved by the ethics committee of Zhengzhou University. BALB/c nude mice (18 g, aged 4–5 weeks) were purchased from Human SJA Laboratory Animal Co. Ltd. (Hunan, China). Mice were subcutaneously implanted with MGC-803 cells (5 × 10^6 cells per mouse) on the right flank of nude mice. Once tumor volumes reached to approximately 100 mm^3, the mice were randomly divided into corresponding saline, CA-4P (100 mg/kg), 28 (100 mg/kg), 28 (50 mg/kg) and 28 (25 mg/kg) treatment groups (n = 10 mice for each group). The treatment groups received intragastric administration of 28 and CA-4P per day for a period of 21 days. Then, the mice were euthanized and tumors isolated and weighed. Their body weights were measured and tumor sizes determined by vernier caliper measurement every other day.

bladder cancer cells = system: bladder cancer cells; parameters: method as in PMID 18281555; details: cited from earlier work
tubulin [2] = system: tubulin; parameters: method as in PMID 11058036; details: read-out: anti-tubulin activity IC50; cited from earlier work
tubulin [3] = system: tubulin; parameters: method as in PMID 15588080; details: cited from earlier work

Compound	melting point [°C]	IC50 (MGC-803 cells; Homo sapiens, MGC-803) [µM]	IC50 (MCF-7 cells; Homo sapiens, MCF7) [µM]	IC50 (A549 cells; Homo sapiens, A549) [µM]	further results
COc1ccc(N2C(=O)[C@H](c3ccc(Cl)cc3)[C@H]2c2ccc(N=[N+]=[N-])cc2)cc1 (relative stereo) [Compound 14, trans-4-(4-azidophenyl)-3-(4-chlorophenyl)-1-(4-methoxyphenyl)azetidin-2-one]	147 to 149	> 20	> 20	> 20	–
COc1ccc(N2C(=O)[C@@H](c3ccccc3)[C@@H]2c2ccc(N=[N+]=[N-])cc2)cc1 (relative stereo) [Compound 15, trans-4-(4-azidophenyl)-1-(4-methoxyphenyl)-3-phenylazetidin-2-one]	114 to 116	> 20	> 20	> 20	–
COc1cc(N2C(=O)[C@H](c3ccccc3)[C@H]2c2ccc(N=[N+]=[N-])cc2)cc(OC)c1OC (relative stereo) [Compound 18, trans-4-(4-azidophenyl)-3-phenyl-1-(3,4,5-trimethoxyphenyl)azetidin-2-one]	66 to 68	0.171 ± 0.051	0.338 ± 0.004	1.74 ± 0.145	–
COc1cc(N2C(=O)[C@@H](c3ccccc3)[C@@H]2c2cccc(N=[N+]=[N-])c2)cc(OC)c1OC (relative stereo) [Compound 25, trans-4-(3-azidophenyl)-3-phenyl-1-(3,4,5-trimethoxyphenyl)azetidin-2-one]	128 to 129	0.392 ± 0.028	0.805 ± 0.176	2.13 ± 0.39	–
COc1cc(N2C(=O)[C@H](c3cccs3)[C@H]2c2ccc(N=[N+]=[N-])cc2)cc(OC)c1OC (relative stereo) [Compound 26, trans-4-(4-azidophenyl)-3-(thiophen-2-yl)-1-(3,4,5-trimethoxyphenyl)azetidin-2-one]	–	0.251 ± 0.053	0.154 ± 0.019	4.2 ± 0.186	IC50 [1]: 0.154 to 4.2 µM
COc1cc(N2C(=O)[C@@H](c3ccccc3)[C@@H]2c2ccc(-n3cc(COc4cccc([N+](=O)[O-])c4)nn3)cc2)cc(OC)c1OC (relative stereo) [Compound 29, trans-4-(4-(4-((3-nitrophenoxy)methyl)-1H-1,2,3-triazol-1-yl)phenyl)-3-phenyl-1-(3,4,5-trimethoxyphenyl)azetidin-2-one]	142 to 145	> 20	> 20	> 20	–
COc1ccc([C@@H]2C(=O)N(c3cc(OC)c(OC)c(OC)c3)[C@H]2c2ccc(-n3cc(-c4ccccc4)nn3)cc2)cc1 (relative stereo) [Compound 30, trans-3-(4-methoxyphenyl)-4-(4-(4-phenyl-1H-1,2,3-triazol-1-yl)phenyl)-1-(3,4,5-trimethoxyphenyl)azetidin-2-one]	90 to 91	> 20	> 20	> 20	–
COc1ccc(/C=C\c2cc(OC)c(OC)c(OC)c2)cc1OP(=O)(O)O [CA-4P, reference compound]	–	–	–	–	IC50 (MGC-803 cells): 0.015 ± 0.001 µM; IC50 (MCF-7 cells): 0.023 ± 0.002 µM; IC50 (A549 cells): 0.033 ± 0.007 µM; inhibitory rate (tumor weight) (MGC-803 xenograft; 21 days): 63.27%; average tumor weight (MGC-803 xenograft; 21 days (control 1.23 ± 0.28)): 0.45 ± 0.22 g; mean tumor volume at end of observation period (MGC-803 xenograft; 21 days (control 1665.98 ± 568.36)): 642.61 ± 449.92 mm^3
COc1cccc(/C=C/C(=O)N=[N+]=[N-])c1OC [Compound 1]	–	–	–	–	in vitro and in vivo antitumor effect of romidepsin on bladder cancer cells (bladder cancer cells): enhanced
COc1cc(/C=C\c2cc(OC)c(OC)c(OC)c2)ccc1N=[N+]=[N-] [Compound 2]	–	–	–	–	IC50 (tubulin [2]): 5.2 µM
CC(=O)OC1C(=O)C2(C)C(O)CC3OCC3(OC(C)=O)C2C(OC(=O)c2ccccc2)C2(O)CC(OC(=O)C(O)C(NC(=O)c3ccccc3)c3ccc(N=[N+]=[N-])cc3)C(C)=C1C2(C)C (stereo not shown) [Compound 3, 3′-(4-Azidophenyl)-3′-dephenylpaclitaxel]	–	–	–	–	activity in tubulin assembly and cytotoxicity assays (tubulin [3]): as active as paclitaxel
COc1ccc([C@H]2C(=O)N(c3ccc(OC)c(OC)c3)[C@@H]2c2ccc(N=[N+]=[N-])cc2)cc1 [Compound 13, trans-4-(4-azidophenyl)-1-(3,4-dimethoxyphenyl)-3-(4-methoxyphenyl)azetidin-2-one]	–	> 20	> 20	> 20	–
COc1cc(N2C(=O)[C@@](c3ccccc3)(S(=O)(=O)C(F)(F)F)[C@H]2c2ccc(N=[N+]=[N-])cc2)cc(OC)c1OC [Compound 35, 4-(4-azidophenyl)-3-phenyl-3-((trifluoromethyl)sulfonyl)-1-(3,4,5-trimethoxyphenyl)azetidin-2-one]	–	> 20	> 20	> 20	–
COc1cc(N2C(=O)[C@@](c3ccccc3)(S(=O)(=O)C(F)(F)F)[C@H]2c2cccc(N=[N+]=[N-])c2)cc(OC)c1OC [Compound 36, 4-(3-azidophenyl)-3-phenyl-3-((trifluoromethyl)sulfonyl)-1-(3,4,5-trimethoxyphenyl)azetidin-2-one]	–	> 20	> 20	> 20	–
trans-4-phenyl-3-(thiophen-2-yl)-1-(3,4,5-trimethoxyphenyl)azetidin-2-one [Compound 27]	–	–	–	–	IC50 (MGC-803 cells): > 20 µM; IC50 (MCF-7 cells): > 20 µM; IC50 (A549 cells): > 20 µM

From PMC5630639 (Scientific Reports, 2017)
